From patent US7547799B1, “Method for producing phenolic compound” (Sabic Innovative Plastics IP B.V., priority 2008, dated 2009)

Test: Determination of the solubility of BMSC in MeOH at 65° C. (with reflux)
Type: physicochemical
Description: Determination of the Solubility of BMSC in MeOH at 65° C. (with Reflux):
BMSC was loaded in a round bottom flask, a small amount of MeOH was added to the BMSC, to form a slurry. This mixture was heated up to 65° C. under reflux. MeOH was then continuously added under vigorous stirring, until a lucid and colorless solution was obtained.

SMILES: COC(=O)c1ccccc1OC(=O)Oc1ccccc1C(=O)OC [BMSC, bismethylsalicylcarbonate]
- solubility of BMSC in MeOH (lucid and colorless solution obtained) (65° C., under reflux, vigorous stirring): 5.8 mass %
- solution of BMSC in MeOH obtainable under reflux (restated in the discussion): 6%
